Test results as given in the NIST ThermoML archive (doi:10.1016/j.fluid.2008.11.014).
± gives the expanded uncertainty stated by the source.

Assays:
[1] = refractive index (Na D-line) (dimensionless); conditions: 298.2 K; 101.33 kPa; Liquid; Standard Abbe refractometry
[2] = 298.2 K; 101.33 kPa; Liquid; Vibrating tube method

| refractive index [1] | mass density [2] [kg/m3] | SMILES |
| --- | --- | --- |
| 1.3653 ± 0.0007 | 718.79 ± 0.3 | CC(C)OC(C)C [diisopropyl ether] |
| 1.3835 ± 0.0007 | 799.62 ± 0.24 | CCCO [propan-1-ol] |
